The source of these data is PMC11596355, “Virtual Screening Approaches to Identify Promising Multitarget-Directed Ligands for the Treatment of Autism Spectrum Disorder” (Molecules, 2024).

Structures are written as SMILES.

For one assay, the target named is T1, human D2sR (D2shortR) (Homo sapiens, UniProt P14416).
T1 construct: gene DRD2; full-length short isoform stably expressed in CHO-K1 cells, membrane fraction
As to the kind of experiment: [3H]spiperone displacement, CHO-K1 membranes. Format: binding. As to conditions: read-out: D2sR pKi ± SEM ^b (converted). The text has this: [3H]spiperone displacement, CHO-K1 membranes on human D2sR (D2shortR)

The next assay addresses T2, human D3R (Homo sapiens, UniProt P35462).
T2 construct: gene DRD3; full-length, stably expressed in CHO-K1 cells, membrane fraction
Put plainly: [3H]spiperone displacement, CHO-K1 membranes. In kind it is binding. As to conditions: read-out: D3R pKi ± SEM ^b (converted). The text has this: [3H]spiperone displacement, CHO-K1 membranes on human D3R

T2 sequence (P35462 whole entry): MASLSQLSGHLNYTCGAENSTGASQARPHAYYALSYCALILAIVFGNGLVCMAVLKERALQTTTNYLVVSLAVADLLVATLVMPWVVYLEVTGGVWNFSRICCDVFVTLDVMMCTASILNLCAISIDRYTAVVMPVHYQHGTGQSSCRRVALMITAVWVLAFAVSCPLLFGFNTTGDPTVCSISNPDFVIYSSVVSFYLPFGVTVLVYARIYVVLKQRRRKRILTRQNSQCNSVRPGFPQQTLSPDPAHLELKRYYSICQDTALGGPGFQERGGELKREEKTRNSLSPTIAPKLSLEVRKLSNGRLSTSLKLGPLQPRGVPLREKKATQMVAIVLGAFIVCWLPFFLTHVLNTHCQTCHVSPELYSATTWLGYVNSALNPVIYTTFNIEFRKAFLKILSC
T1 sequence (P14416 1-414 isoform P14416-2): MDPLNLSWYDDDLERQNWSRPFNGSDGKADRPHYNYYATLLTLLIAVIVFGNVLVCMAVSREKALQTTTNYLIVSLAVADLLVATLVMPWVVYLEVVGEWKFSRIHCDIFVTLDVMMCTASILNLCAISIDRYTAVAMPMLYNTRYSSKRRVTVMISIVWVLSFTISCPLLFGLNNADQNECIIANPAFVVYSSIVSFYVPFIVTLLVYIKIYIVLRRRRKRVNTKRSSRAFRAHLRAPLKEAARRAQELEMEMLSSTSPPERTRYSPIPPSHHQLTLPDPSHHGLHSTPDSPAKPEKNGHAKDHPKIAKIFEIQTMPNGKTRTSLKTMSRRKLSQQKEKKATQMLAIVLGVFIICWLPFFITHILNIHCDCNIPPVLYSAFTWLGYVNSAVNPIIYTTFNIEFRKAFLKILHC

As to `N=C(N)N(CCCCN1CCN(CCCCN(Cc2ccc(C(F)(F)F)cc2)C(=N)N)CC1)Cc1ccc(C(F)(F)F)cc1` [compound 30], the values for the Ki on human D2sR (D2shortR) and at human D3R were 0.759 µM and 14.5 µM, respectively.
